According to paper PMC11840605, “Crystallographic and Thermodynamic Evidence of Negative Coupling in the Flavin-Dependent Tryptophan Halogenases AbeH and BorH” (ACS Omega, 2025):
Entries after “also recorded” stand apart in the source; their conditions may differ. Read-outs that look alike come from different tables or passages of the source.

Columns and labels:
AbeH [1] = target: T1, AbeH (uncultured bacterium, UniProt F6LWA5); experiment: Isothermal titration calorimetry, ligand into AbeH; type: binding, uncultured soil actinomycetes
T1 sequence (F6LWA5 entry or part of it): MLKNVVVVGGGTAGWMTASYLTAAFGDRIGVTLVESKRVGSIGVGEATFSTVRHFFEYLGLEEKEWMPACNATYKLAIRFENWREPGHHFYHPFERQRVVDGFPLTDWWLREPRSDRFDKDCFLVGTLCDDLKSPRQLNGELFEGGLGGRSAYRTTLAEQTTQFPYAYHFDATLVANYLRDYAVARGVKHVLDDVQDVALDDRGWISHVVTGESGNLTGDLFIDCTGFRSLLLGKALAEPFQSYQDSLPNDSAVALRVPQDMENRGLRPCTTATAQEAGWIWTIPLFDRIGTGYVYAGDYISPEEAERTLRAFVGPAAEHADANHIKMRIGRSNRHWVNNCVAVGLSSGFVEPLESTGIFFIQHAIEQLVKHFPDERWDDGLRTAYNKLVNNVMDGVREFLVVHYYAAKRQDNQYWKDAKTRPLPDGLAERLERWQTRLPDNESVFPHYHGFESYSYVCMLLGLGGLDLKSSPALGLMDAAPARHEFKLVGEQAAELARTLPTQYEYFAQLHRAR
Procedure: (§1) ITC experiments were performed using a VP-ITC isothermal titration calorimeter (MicroCal) in 20 mM HEPES pH 7.5, 350 mM NaCl, 1 mM ethylenediamine tetraacetic acid (EDTA) and 15% (v/v) glycerol. Solutions of AbeH, BorH, FAD (Chem-Implex), and Trp (Acros Organics) were prepared in the same buffer and degassed under vacuum at 30 °C for 20 min before loading in the syringe or cell. To analyze formation of binary complexes, AbeH or BorH was placed inside the cell, and ligand (FAD or Trp) was injected. For ternary complex titration, one ligand was preincubated with the macromolecule for 30 min at 30 °C to form binary complexes of AbeH/FAD, AbeH/Trp, BorH/FAD, and BorH/Trp before titrating with the second ligand. To test FADH2 binding to AbeH and BorH, FAD was reduced to FADH2 using sodium dithionite and stored under N2. Formation of FADH2 by sodium dithionite was verified using absorbance and fluorescence spectrophotometry.
(§2) ITC experiments were performed with reference power set to 10 μcal/s and Milli-Q water in the reference cell. All experiments were done with a pretitration delay of 20 min, a 5 min interval between injections, and a filter period of 2 s in high feedback gain mode. All experiments were performed at 310 rpm to mix the components in cell and titrant. All other VP-ITC instrumental parameters were set to default settings. Heats of dilution for all titrants were measured by titrating ligand into buffer for binary complex titrations, and by titrating ligand into a solution containing the other ligand but no protein for ternary complex titration.
1.2 mM FAD (2 μL/1 and 5 μL/19 injections) into 18 μM AbeH (Figure 4A)
0.12 mM FADH2 (2 μL/1 and 15 μL/19 injections) into 7 μM AbeH in the presence of sodium dithionite (Figure 4B)
1.4 mM Trp (3 μL/1 and 10 μL/29 injections) into 43 μM AbeH (Figure S7)
16 mM Trp (2 μL/1 and 10 μL/29 injections) into 18 μM AbeH (Figure 5A)
(§3) Titrations were analyzed by manually integrating each injection, subtracting the heat of dilution, and carrying out nonlinear least-squares fit of the calorimetric binding data to a one-site model using Origin 7.0 (Origin Lab). Trp binding experiments were subtracted by point-by-point heat of dilution, and FAD and FADH2 binding experiments were subtracted using the mean heat of the last three injections. For the Trp binding data, n was fixed to 1 based on expected stoichiometry of 1:1 based on FDH crystal structures and as proposed for lower c-value titrations in the literature.[23],[25],[82] The other parameters were not constrained during fitting.

BorH = BorH (uncultured bacterium, UniProt M9QSI0); experiment: Isothermal titration calorimetry, ligand into BorH; type: binding, uncultured soil actinomycetes
Sequence of BorH (M9QSI0 1-529): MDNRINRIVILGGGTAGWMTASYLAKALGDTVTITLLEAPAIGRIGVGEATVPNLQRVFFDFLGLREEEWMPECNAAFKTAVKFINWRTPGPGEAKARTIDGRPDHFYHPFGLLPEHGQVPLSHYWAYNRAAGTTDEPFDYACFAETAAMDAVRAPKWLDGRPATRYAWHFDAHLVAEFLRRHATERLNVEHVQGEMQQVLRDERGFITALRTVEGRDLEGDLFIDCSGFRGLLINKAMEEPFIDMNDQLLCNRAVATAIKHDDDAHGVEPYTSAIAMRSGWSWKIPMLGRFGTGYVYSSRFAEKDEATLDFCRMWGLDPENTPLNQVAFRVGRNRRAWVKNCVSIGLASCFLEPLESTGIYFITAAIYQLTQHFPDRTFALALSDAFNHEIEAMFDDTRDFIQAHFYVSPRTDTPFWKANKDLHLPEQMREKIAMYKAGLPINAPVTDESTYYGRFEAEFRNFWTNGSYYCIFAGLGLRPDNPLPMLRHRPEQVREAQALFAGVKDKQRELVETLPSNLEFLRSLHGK
Procedure: as §1, with “Solutions” for “ITC experiments were performed using a VP-ITC isothermal titration calorimeter (MicroCal) in 20 mM HEPES pH 7.5, 350 mM NaCl, 1 mM ethylenediamine tetraacetic acid (EDTA) and 15% (v/v) glycerol. Solutions”
as §2, §3

AbeH [2] = target: T1, AbeH; experiment: FAD fluorescence quenching titration with AbeH; type: binding, uncultured soil actinomycetes
Procedure: Quenching of FAD fluorescence quenching upon binding to AbeH was measured in the absence and presence of Trp in 20 mM Tris-HCl pH 8.0 and 100 mM NaCl using a Quantmaster 40 fluorimeter (Photon Technologies International). Trp and FAD solutions were prepared in 20 mM Tris-HCl pH 8, and concentrations were determined by absorbance at 280 and 450 nm, respectively. FAD fluorescence was measured using excitation at 450 nm (4 nm slit opening) and emission set at 525 nm (6 nm slit opening) using a fluorescence cuvette to collect 50 scans, which were averaged later during data processing in Microsoft Excel. […] Raw fluorescence intensities were corrected for the buffer, Trp, and AbeH background contributions. Quenched fluorescence intensity was plotted vs AbeH concentration and fit to eq 1 using GraphPad Prism 8.0 by nonlinear regression analysis. In eq 1, F = fractional saturation, ΔF = fluorescence quenching upon AbeH/FAD complex formation (calculated from the difference of FAD fluorescence intensity at different AbeH concentration), ΔFmax = maximum fluorescence change obtained from fit, [AbeHFAD] = FAD-bound AbeH, [AbeH]T = Total AbeH concentration, [FAD]T = Total FAD concentration, KD = equilibrium dissociation constant. […]
A. Fluorescence quenching observed from binding of Apo-AbeH ([…]) to […] FAD; […]

BorF = conditions: read-out: KD, flavin binding to BorF; cited from earlier work
BorH/FAD = experiment: Isothermal titration calorimetry, Trp into BorH preincubated with FAD; type: binding, uncultured soil actinomycetes
Procedure: as §1, with “To test FADH2 binding to AbeH and BorH, FAD was reduced to FADH2 using sodium dithionite and stored under N2.” left out
ITC experiments were performed with reference power set to 10 μcal/s and Milli-Q water in the reference cell. […] Heats of dilution for all titrants were measured by titrating ligand into buffer for binary complex titrations, and by titrating ligand into a solution containing the other ligand but no protein for ternary complex titration. […]
Titrations were analyzed by manually integrating each injection, subtracting the heat of dilution, and carrying out nonlinear least-squares fit of the calorimetric binding data to a one-site model using Origin 7.0 (Origin Lab). […]

[3] = ITC, read-out: KD, binding to BorH, ITC

Cc1cc2nc3c(=O)[nH]c(=O)nc-3n(C[C@H](O)[C@H](O)[C@H](O)COP(=O)(O)OP(=O)(O)OC[C@H]3O[C@@H](n4cnc5c(N)ncnc54)[C@H](O)[C@@H]3O)c2cc1C [FAD]
Kd (AbeH [1]; ITC, read-out: KD, binding to AbeH, ITC): 1.2 ± 0.4 µM
-TDS (-TΔS, ITC, Table S3) (AbeH [1]; cell AbeH): -3.6 kcal/mol
DG (ΔG, ITC, Table S3) (AbeH [1]; cell AbeH): -8.2 kcal/mol
DH (ΔH, ITC, Table S3) (AbeH [1]; cell AbeH): -4.6 ± 0.4 kcal/mol
n (ITC, Table S3) (AbeH [1]; cell AbeH): 0.93 ± 0.05
Kd (BorH; [3]): 13 ± 3.3 µM
-TDS (-TΔS, ITC, Table S3) (BorH; cell BorH): 4.7 kcal/mol
DG (ΔG, ITC, Table S3) (BorH; cell BorH): -6.7 kcal/mol
DH (ΔH, ITC, Table S3) (BorH; cell BorH): -11.4 ± 0.4 kcal/mol
n (ITC, Table S3) (BorH; cell BorH): 1.1 ± 0.4
Kd (AbeH [2]): 1.6 ± 0.4 µM
Kd (BorF): 0.1 µM

N[C@@H](Cc1c[nH]c2ccccc12)C(=O)O [Tryptophan, L-tryptophan]
Trp affinity of AbeH lower than the FAD affinity (AbeH [1]): 500 ×
Kd (AbeH [1]; KD (ITC, Table S3), cell AbeH): 833 µM
Kd (AbeH [1]; KD for Trp/AbeH, ITC, one-site model, n fixed to 1): 800 µM
Heat of binding, Trp titrated into AbeH at low molar ratios (AbeH [1]; Trp:AbeH molar ratios between 0-9, 1.4 mM Trp into 43 μM AbeH): no significant heat of binding detected
-TDS (-TΔS, ITC, Table S3) (AbeH [1]; cell AbeH): 0.4 kcal/mol
DG (ΔG, ITC, Table S3) (AbeH [1]; cell AbeH): -4.3 kcal/mol
DH (ΔH, ITC, Table S3) (AbeH [1]; cell AbeH): -4.7 ± 0.4 kcal/mol
Trp affinity of BorH higher than that of AbeH (BorH): 2 fold
Trp affinity of BorH lower than the FAD affinity (BorH): 30 ×
Kd (BorH; [3]): 430 ± 60 µM
-TDS (-TΔS, ITC, Table S3) (BorH; cell BorH): -0.5 kcal/mol
DG (ΔG, ITC, Table S3) (BorH; cell BorH): -4.6 kcal/mol
DH (ΔH, ITC, Table S3) (BorH; cell BorH): -4.1 ± 0.3 kcal/mol
Kd (BorH; cell BorH, read-out: KD (ITC, Table S3)): 435 µM
Kd (BorH; one-site model, n fixed to 1, read-out: KD for Trp/BorH, ITC): 400 µM
Binding of Trp to preincubated BorH/FAD by ITC, in words (BorH/FAD; 21 mM Trp into 8 μM BorH preincubated with 5 mM FAD, listed as Trp): No binding was observed; also recorded: no evidence of Trp binding
KD, Trp binding to BorH/FAD, ITC (BorH/FAD; BorH preincubated with FAD): no binding
